Columns and labels:
Glucocorticoid receptor [1] = target: T1, Glucocorticoid receptor (Homo sapiens, UniProt P04150); assay: Displacement of radiolabeled Dexamethasone from GR
T1 sequence (P04150 whole entry): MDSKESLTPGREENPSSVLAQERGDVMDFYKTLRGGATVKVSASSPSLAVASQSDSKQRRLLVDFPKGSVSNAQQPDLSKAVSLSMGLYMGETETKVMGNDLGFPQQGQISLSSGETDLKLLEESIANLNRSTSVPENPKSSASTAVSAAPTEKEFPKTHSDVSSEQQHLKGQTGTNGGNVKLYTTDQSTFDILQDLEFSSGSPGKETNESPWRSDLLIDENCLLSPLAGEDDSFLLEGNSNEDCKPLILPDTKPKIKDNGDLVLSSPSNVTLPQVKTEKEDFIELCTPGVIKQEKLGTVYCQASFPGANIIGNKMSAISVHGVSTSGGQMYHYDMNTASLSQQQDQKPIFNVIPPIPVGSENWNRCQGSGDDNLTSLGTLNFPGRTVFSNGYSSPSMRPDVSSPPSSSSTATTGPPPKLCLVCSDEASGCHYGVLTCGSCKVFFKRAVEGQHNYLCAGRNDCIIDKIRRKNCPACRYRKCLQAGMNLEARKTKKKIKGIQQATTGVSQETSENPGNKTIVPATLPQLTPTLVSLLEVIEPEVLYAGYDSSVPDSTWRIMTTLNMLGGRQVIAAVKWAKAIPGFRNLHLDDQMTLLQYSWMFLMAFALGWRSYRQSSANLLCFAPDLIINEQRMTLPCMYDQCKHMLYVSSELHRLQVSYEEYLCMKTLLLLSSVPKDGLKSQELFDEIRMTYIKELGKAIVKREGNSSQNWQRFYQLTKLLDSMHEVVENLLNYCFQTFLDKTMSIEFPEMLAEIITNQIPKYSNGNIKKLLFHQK

Glucocorticoid receptor [2] = target: T1, Glucocorticoid receptor; assay: Agonist activity at GR expressed in african green monkey CV1 cells transfected with luciferase gene linked to MMTV promoter assessed as induction of luciferase transactivation activity relative to Dexamethasone; type: functional, cell-based, CV-1
Glucocorticoid receptor [3] = target: T1, Glucocorticoid receptor; assay: Agonist activity at GR expressed in IL-1beta- and TNFalpha-stimulated HepG2 cells assessed as inhibition of NFKB- or AP-1 mediated E-selectin transcription by luciferase reporter gene assay relative to Dexamethasone; type: functional, cell-based
Glucocorticoid receptor [4] = target: T1, Glucocorticoid receptor; assay: Agonist activity at human GR expressed in NHDF cells assessed as inhibition of IL-6 production by ELISA relative to Dexamethasone; type: functional, cell-based
[5] = Metabolic stability in CD-1 […] liver microsomes by HPLC-MS/MS; type: ADME, Microsome; conditions: CD-1, liver microsomes
[6] = Metabolic stability in human liver microsomes by HPLC-MS/MS; type: ADME, Microsome
Progesterone receptor = target: T2, Progesterone receptor (Homo sapiens, UniProt P06401); assay: Binding affinity to PR
T2 sequence (P06401 whole entry): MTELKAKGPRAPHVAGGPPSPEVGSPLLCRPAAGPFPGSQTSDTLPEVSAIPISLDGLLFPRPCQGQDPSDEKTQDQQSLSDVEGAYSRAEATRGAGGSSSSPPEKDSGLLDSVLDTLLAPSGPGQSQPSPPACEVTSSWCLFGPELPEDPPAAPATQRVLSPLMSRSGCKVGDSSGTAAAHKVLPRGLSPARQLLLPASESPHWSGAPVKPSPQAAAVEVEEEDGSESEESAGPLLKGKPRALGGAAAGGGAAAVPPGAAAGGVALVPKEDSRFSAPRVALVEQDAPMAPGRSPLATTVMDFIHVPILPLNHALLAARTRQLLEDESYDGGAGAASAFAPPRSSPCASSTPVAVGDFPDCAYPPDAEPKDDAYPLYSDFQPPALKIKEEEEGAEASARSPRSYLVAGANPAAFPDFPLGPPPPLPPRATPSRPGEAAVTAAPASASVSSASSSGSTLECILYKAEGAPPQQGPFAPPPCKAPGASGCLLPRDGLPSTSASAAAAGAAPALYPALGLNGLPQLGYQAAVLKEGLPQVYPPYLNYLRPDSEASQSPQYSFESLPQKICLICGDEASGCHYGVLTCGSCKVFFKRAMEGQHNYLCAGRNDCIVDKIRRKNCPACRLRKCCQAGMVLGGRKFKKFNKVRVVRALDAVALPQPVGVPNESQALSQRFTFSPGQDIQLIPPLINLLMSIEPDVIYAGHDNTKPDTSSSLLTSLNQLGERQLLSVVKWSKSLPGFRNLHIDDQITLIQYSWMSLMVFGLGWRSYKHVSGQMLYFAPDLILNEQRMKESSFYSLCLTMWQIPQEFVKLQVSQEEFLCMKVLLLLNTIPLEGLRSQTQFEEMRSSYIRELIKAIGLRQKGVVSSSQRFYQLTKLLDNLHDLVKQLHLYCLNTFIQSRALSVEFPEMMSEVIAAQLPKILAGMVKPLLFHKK

[7] = Selectivity ratio of Ki for GR to Ki for PR

Structure (SMILES)	Ki (Glucocorticoid receptor [1])	EC50 (Glucocorticoid receptor [2])	IC50 (Glucocorticoid receptor [3])	IC50 (Glucocorticoid receptor [4])	half-life [5]	half-life [6]	Ki (Progesterone receptor)	Ratio Ki [7]
Cc1cc(-c2cccc3cc[nH]c23)c(/C=N/OC(C)(C)C)c2c1NC(C)(C)[C@H](O)[C@H]2C (racemic)	6 nM	34 nM	5.5 nM	3.8 nM	–	–	–	–
Cc1c(-c2cccc3cc[nH]c23)cc2c(c1C)NC(C)(C)[C@H](O)[C@H]2C (racemic)	38.3 nM	205 nM	42 nM	> 1000 nM	–	–	–	–
C=Cc1c(-c2cccc3cc[nH]c23)cc2c(c1C)NC(C)(C)[C@H](O)[C@H]2C (racemic)	3.1 nM	18 nM	13 nM	> 1000 nM	–	–	–	–
Cc1cc(-c2cccc3cc[nH]c23)c(/C=N/OCc2ccccc2)c2c1NC(C)(C)[C@H](O)[C@H]2C (racemic)	3.5 nM	3.7 nM	3.1 nM	14.4 nM	–	–	–	–
Cc1cc(-c2cccc3cc[nH]c23)c(F)c2c1NC(C)(C)[C@H](O)[C@H]2C (racemic)	2.3 nM	56 nM	5.9 nM	7.1 nM	–	–	–	–
CC(=O)/C=C/c1c(-c2cccc3cc[nH]c23)cc(C)c2c1[C@H](C)[C@@H](O)C(C)(C)N2 (racemic)	10.4 nM	112 nM	7.8 nM	> 1000 nM	–	–	–	–
CCO/N=C/c1c(-c2cccc3cc[nH]c23)cc(C)c2c1[C@H](C)[C@@H](O)C(C)(C)N2 (racemic)	1.5 nM	0.2 nM	0.9 nM	3.4 nM	–	–	–	–
CO/N=C/c1c(-c2cccc3cc[nH]c23)cc(C)c2c1[C@H](C)[C@@H](O)C(C)(C)N2 (racemic)	6.9 nM	0.4 nM	1.7 nM	4.2 nM	–	–	–	–
Cc1c2c(cc(-c3cccc4cc[nH]c34)c1C(F)(F)F)[C@H](C)[C@@H](O)C(C)(C)N2 (racemic)	106 nM	> 1000 nM	> 1000 nM	> 1000 nM	–	–	–	–
Cc1cc(-c2cccc3cc[nH]c23)c(/C=C/C#N)c2c1NC(C)(C)[C@H](O)[C@H]2C (racemic)	16.6 nM	5.7 nM	6.5 nM	16 nM	–	–	–	–
Cc1cc(-c2cccc3cc[nH]c23)c(C)c2c1NC(C)(C)[C@H](O)[C@H]2C (racemic)	1.2 nM	0.9 nM	4.7 nM	9.3 nM	–	–	–	–
Cc1cc(-c2cccc3cc[nH]c23)c(C#N)c2c1NC(C)(C)[C@H](O)[C@H]2C (racemic)	1.3 nM	9.6 nM	5.3 nM	16 nM	13 min	13 min	–	–
Cc1cc(-c2cccc3cc[nH]c23)c(Cl)c2c1NC(C)(C)[C@H](O)[C@H]2C (racemic)	–	–	–	–	3.3 min	4.7 min	–	–
Cc1cc(-c2cccc3cc[nH]c23)cc2c1NC(C)(C)[C@H](O)[C@H]2C (racemic)	9 nM	108 nM	21 nM	> 1000 nM	–	–	–	–
Cc1c(Cl)c(-c2cccc3cc[nH]c23)cc2c1NC(C)(C)[C@H](O)[C@H]2C (racemic)	1.8 nM	36 nM	21 nM	26 nM	25 min	21 min	190 nM	> 100
C=Cc1c(-c2cccc3cc[nH]c23)cc(C)c2c1[C@H](C)[C@@H](O)C(C)(C)N2 (racemic)	19.6 nM	40 nM	> 1000 nM	> 1000 nM	–	–	–	–
Cc1cc(-c2cccc3cc[nH]c23)c(/C=N/O)c2c1NC(C)(C)[C@H](O)[C@H]2C (racemic)	319 nM	105 nM	11 nM	> 1000 nM	–	–	–	–
C[C@H]1c2c(Cl)c(-c3cccc4cc[nH]c34)cc(F)c2NC(C)(C)[C@@H]1O (racemic)	8 nM	89 nM	17 nM	14 nM	3.8 min	15 min	–	–
C[C@H]1c2c(F)c(-c3cccc4cc[nH]c34)c(F)c(Cl)c2NC(C)(C)[C@@H]1O (racemic)	1 nM	1.3 nM	3.9 nM	16 nM	–	–	–	–
CCc1c(-c2cccc3cc[nH]c23)cc(C)c2c1[C@H](C)[C@@H](O)C(C)(C)N2 (racemic)	11.7 nM	16 nM	15 nM	> 1000 nM	–	–	–	–
C[C@H]1c2c(F)c(-c3cccc4cc[nH]c34)c(F)c(F)c2NC(C)(C)[C@@H]1O (racemic)	5 nM	16 nM	3.8 nM	19 nM	–	–	–	–
Cc1c(F)c(-c2cccc3cc[nH]c23)cc2c1NC(C)(C)[C@H](O)[C@H]2C (racemic)	0.9 nM	40 nM	1.7 nM	4.1 nM	16 min	17 min	–	–
C[C@H]1c2c(cc(Cl)c(-c3cccc4cc[nH]c34)c2Cl)NC(C)(C)[C@@H]1O (racemic)	157 nM	480 nM	301 nM	> 1000 nM	–	–	–	–
C[C@H]1c2cc(-c3cccc4cc[nH]c34)c(F)c(F)c2NC(C)(C)[C@@H]1O (racemic)	2.4 nM	11 nM	7.7 nM	20 nM	–	–	–	–

Source: ChEMBL document CHEMBL1681726, “Discovery of orally available tetrahydroquinoline-based glucocorticoid receptor agonists” (Bioorg Med Chem Lett, 2011)
